By minimal effective dose is commonly meant the lowest level tested that produced the effect sought.

Structures can show the parent of a compound that is named as a salt.

From patent US20260274814A1, “THIENYL COMPOUNDS FOR THE TREATMENT OF A CENTRAL NERVOUS SYSTEM DISEASE OR DISORDER” (Coreterra Therapeutics, Inc., priority 2023, published 2026) come the findings set out here.

In this assay the test system is mice. Briefly: Neuropharmacological Assay (SmartCube): automated behavioral signature of compound-treated mice compared with a database of reference drug classes. Type of assay: in vivo. To be noted: for MED (minimal effective dose) / minimal effective dose: dose having 45% or more total activity in SmartCube, i.p., if only one dose was tested, that dose is shown; for AD / AG / AN / CE / HL / MS / PS / SH / UK / AP / AX: probability that activity matches this class of agents, 3.0 mg/kg i.p., 15 min before test; for minimal effective dose: Mus musculus, ip, read-out: MED (minimal effective dose). From the text: Neurosci. 2011 Sep. 9; 5: 103 (doi: 10.3389/fnins.2011.00103) (“Roberds”). As reported in Roberds, because psychiatric diseases generally result from disorders of cell-cell communication or circuitry, intact systems are useful in detecting improvement in disease-relevant endpoints. These endpoints are typically behavioral in nature, often requiring human observation and interpretation. To facilitate testing of multiple compounds for behavioral effects relevant to psychiatric disease, PsychoGenics, Inc. (Tarrytown, NY, “PGI”) developed SmartCube™ an automated system in which behaviors of compound-treated mice are captured by digital video and analyzed with computer algorithms. (D. Brunner et al. Drug Discov. Today 2002, 7:S107-S112). PGI Analytical Systems uses data from SmartCube™ to compare the behavioral signature of a test compound to a database of behavioral signatures obtained using a large set of diverse reference compounds. (The composition of the database as well as validation of the method is further described in Roberds). In this way, the neuropharmacological effects of a test compound can be predicted by similarity to major classes of compounds, such as antipsychotics, anxiolytics and antidepressants.
The SmartCube™ system produces an activity signature indicating the probability that the activity of the test compound at the administered dose matches a given class of neuropharmacological agents. (See, e.g., Roberds, FIGS. 2 and 3). The test compound is simultaneously compared against multiple classes of agents; thus, a separate probability is generated for each behavioral effect measured (e.g., anxiolytic activity, analgesic activity, etc.). In table 2 below, these probabilities are reported for each behavioral effect measured as described in Table 1 below.
Provided compounds were dissolved in a mixture of Pharmasolve™ (N-methyl-2-pyrrolidone), polyethylene glycol and propylene glycol, and were injected i.p. 15 min. before the behavioral test. For each compound, injections were administered at 3 different doses. For each behavioral effect measured, results for the 3.0 mg/kg dose are presented. The potency of many of the compounds in the table was also determined in the SmartCube™ system. Test compounds were routinely examined at dose levels of 0.3, 1, 3 and 10 mg per kg (mpk), although the dose range was increased or decreased, if necessary, to obtain a full dose response curve. A compound's minimal effective dose (MED) is a measure of the compound's potency. The MED was defined as the dose (in mpk) having 45% or more total activity in SmartCube. If only one dose was tested, that dose is shown in the MED column of Table 2 even though the dose is not known to be the MED.

As to `CNC1CCc2c(csc2C)C1` (single isomer, unassigned) [Compound 32, N, 1-dimethyl-4,5,6,7-tetrahydro-2-benzothiophen-5-amine hydrochloride], the AD result is “+++ (≥49%)”, the AG result is reported as “ND (^ <4%)”, the AN entry is given as “ND (^ <4%)” and the CE result is “ND (^ <4%)”. The HL entry is “ND (^ <4%)”, the MS entry is recorded as “ND (^ <4%)”, the PS entry is “ND (^ <4%)” and the SH result is reported as “ND (^ <4%)”. Also, the UK entry is on record as “ND (^ <4%)”. For the same compound, the “MED (minimal effective dose)” value (hydrochloride) is 1.0 mpk. Further, for the setting “hydrochloride, 3 mg/kg”, the AP result is listed as “+ (≥4%)” and the AX result was “++ (≥24%)”.
On to `CNC1CCc2c(csc2C)C1` (single isomer, unassigned) [Compound 33, N, 1-dimethyl-4,5,6,7-tetrahydro-2-benzothiophen-5-amine hydrochloride], for which the AD result is reported as “+++ (≥49%)”, the AG entry is given as “ND (^ <4%)”, the AN result is “ND (^ <4%)” and the CE result is reported as “ND (^ <4%)”. For the same compound, the HL entry is “ND (^ <4%)”, the MS entry is recorded as “ND (^ <4%)”, the PS entry is recorded as “ND (^ <4%)” and the SH result was “ND (^ <4%)”. Also, the UK result is reported as “ND (^ <4%)”. Also, the “MED (minimal effective dose)” value (hydrochloride) was 0.3 mpk. Further, for the setting “hydrochloride, 3 mg/kg”, the AP result is recorded as “++ (≥24%)” and the AX result was “ND (^ <4%)”.
As to `Cc1cc2c(s1)CC(N(C)C)CC2.Cl` (single isomer, unassigned) [Compound 34, N,N, 2-trimethyl-4,5,6,7-tetrahydrobenzothiophen-6-amine hydrochloride], the minimal effective dose was found to be 10 mg/kg, the AD entry is listed as “ND (^ <4%)”, the AG result is on record as “ND (^ <4%)” and the AN result is “ND (^ <4%)”. Besides, the AP result is on record as “ND (^ <4%)”, the AX entry is “ND (^ <4%)”, the CE result is recorded as “ND (^ <4%)” and the HL result is recorded as “ND (^ <4%)”. Further, the MS entry is “ND (^ <4%)”, the PS result was “ND (^ <4%)”, the SH entry is given as “ND (^ <4%)” and the UK result is on record as “++ (≥24%)”.
As for `Cc1cc2c(s1)CC(N(C)C)CC2.Cl` (single isomer, unassigned) [Compound 35, N,N, 2-trimethyl-4,5,6,7-tetrahydrobenzothiophen-6-amine hydrochloride], the “MED (minimal effective dose)” value amounted to 10 mpk, the AD result is listed as “ND (^ <4%)” and the UK entry is on record as “++ (≥24%)”.
Consider `CNC1CCc2cc(C#N)sc2C1` (single isomer, unassigned) [Compound 36, 6-(methylamino)-4,5,6,7-tetrahydrobenzothiophene-2-carbonitrile hydrochloride], for which the minimal effective dose turned out to be 3 mg/kg, the AD entry is given as “ND (^ <4%)”, the AG result is given as “ND (^ <4%)” and the AN entry was “ND (^ <4%)”. Besides, the AX result is given as “ND (^ <4%)”, the CE result was “ND (^ <4%)”, the HL entry is “ND (^ <4%)” and the MS result is given as “ND (^ <4%)”. Further, the PS result is recorded as “ND (^ <4%)” and the SH result is listed as “ND (^ <4%)”. Also, under “hydrochloride, 3 mg/kg”, the AP entry is “+++ (≥49%)” and the UK entry is listed as “++ (≥24%)”.
For the compound `CNC1CCc2cc(C#N)sc2C1` (single isomer, unassigned) [Compound 37, 6-(methylamino)-4,5,6,7-tetrahydrobenzothiophene-2-carbonitrile hydrochloride], the “MED (minimal effective dose)” value is on record as 3.0 mpk, the AD result was “ND (^ <4%)”, the AG result was “ND (^ <4%)” and the AN result is “ND (^ <4%)”. In addition, the AX result was “ND (^ <4%)”, the CE entry is “ND (^ <4%)”, the HL result was “ND (^ <4%)” and the MS entry was “ND (^ <4%)”. The PS result was “ND (^ <4%)” and the SH result is listed as “ND (^ <4%)”. Further, under “hydrochloride, 3 mg/kg”, the AP result is listed as “ND (^ <4%)” and the UK result is recorded as “+++ (≥49%)”.
As for `CNC1CCc2cc(C(F)(F)F)sc2C1` (single isomer, unassigned) [Compound 38, N-methyl-2-(trifluoromethyl)-4,5,6,7-tetrahydrobenzothiophen-6-amine], the minimal effective dose is 3 mg/kg, the AG result is on record as “ND (^ <4%)”, the AN result is recorded as “ND (^ <4%)” and the AX entry is “ND (^ <4%)”. Besides, the CE result was “ND (^ <4%)”, the HL entry is “ND (^ <4%)”, the MS result is on record as “ND (^ <4%)” and the PS entry is on record as “ND (^ <4%)”. For the same compound, the SH entry is “ND (^ <4%)”. Besides, for the setting “3 mg/kg”, the AD entry is reported as “ND (^ <4%)”, the AP result was “ND (^ <4%)” and the UK result was “++ (≥24%)”.
For `CNC1CCc2cc(C(F)(F)F)sc2C1` (single isomer, unassigned) [Compound 39, N-methyl-2-(trifluoromethyl)-4,5,6,7-tetrahydrobenzothiophen-6-amine], the “MED (minimal effective dose)” value is 3.0 mpk, the AG entry is “ND (^ <4%)”, the AN entry is reported as “ND (^ <4%)” and the AX entry is given as “ND (^ <4%)”. The CE entry is “ND (^ <4%)”, the HL result is “ND (^ <4%)”, the MS result is reported as “ND (^ <4%)” and the PS result is recorded as “ND (^ <4%)”. Further, the SH result is reported as “ND (^ <4%)”. Also, for the setting “3 mg/kg”, the AD result was “+++ (≥49%)”, the AP result is “++ (≥24%)” and the UK result is reported as “ND (^ <4%)”.
As to `CNC1CCc2csc(C)c2C1.Cl` (single isomer, unassigned) [Compound 40, N, 3-dimethyl-4,5,6,7-tetrahydro-2-benzothiophen-5-amine hydrochloride], the minimal effective dose was determined as 1 mg/kg, the AG entry is listed as “ND (^ <4%)”, the AN entry is on record as “ND (^ <4%)” and the AP result is given as “++ (≥24%)”. Further, the CE entry was “ND (^ <4%)”, the HL entry is given as “ND (^ <4%)”, the MS entry is “ND (^ <4%)” and the PS entry was “ND (^ <4%)”. The SH result is on record as “ND (^ <4%)” and the UK entry is recorded as “ND (^ <4%)”. Moreover, where the note is “hydrochloride, 3 mg/kg”, the AD entry is on record as “ND (^ <4%)” and the AX entry is on record as “+++ (≥49%)”.
As for `CNC1CCc2csc(C)c2C1.Cl` (single isomer, unassigned) [Compound 41, N, 3-dimethyl-4,5,6,7-tetrahydro-2-benzothiophen-5-amine hydrochloride], the “MED (minimal effective dose)” value is 1.0 mpk, the AG result was “ND (^ <4%)”, the AN entry is “ND (^ <4%)” and the AP result is “++ (≥24%)”. In addition, the CE result was “ND (^ <4%)”, the HL result is “ND (^ <4%)”, the MS entry is “ND (^ <4%)” and the PS result is recorded as “ND (^ <4%)”. The SH entry is “ND (^ <4%)” and the UK result is on record as “ND (^ <4%)”. Besides, where the note is “hydrochloride, 3 mg/kg”, the AD result is listed as “+++ (≥49%)” and the AX result is recorded as “ND (^ <4%)”.
Turning to `CNC1CCc2c(sc(C)c2C)C1` (single isomer, unassigned) [Compound 42, N, 2,3-trimethyl-4,5,6,7-tetrahydrobenzothiophen-6-amine hydrochloride], the minimal effective dose is 3 mg/kg, the AD entry is reported as “++++ (≥74%)”, the AG result is listed as “ND (^ <4%)” and the AN entry is “ND (^ <4%)”. For the same compound, the AP result is on record as “ND (^ <4%)”, the AX result is reported as “ND (^ <4%)”, the CE entry is reported as “ND (^ <4%)” and the MS entry is given as “ND (^ <4%)”. Moreover, the PS entry was “ND (^ <4%)”, the SH entry is recorded as “ND (^ <4%)” and the UK result is listed as “ND (^ <4%)”. In addition, under “hydrochloride, 3 mg/kg”, the HL result is recorded as “ND (^ <4%)”.
